Patent US10266510B2, “Antimicrobial and cytotoxic compounds and methods for treating cancer, a bacterial infection, and/or a fungal infection” (King Abdulaziz University, priority 2017, dated 2019)
≈ marks a conversion by molar mass, not a printed value.

What was measured:
Type in all cases: cell-based
[1] = tested on: HCT116 (colon cancer cell line); test: Tumor cell growth assay (sulforhodamine B), HCT116; conditions: for Remarks (% at 100 ppm): 48 h; for Inhibitory effect on in vitro growth (in words): 48 h exposure; for LC90: death of 90% of cells in 48 hrs
Excerpt: (§1) Reagents: Fetal bovine serum (FBS) and L-glutamine were purchased from Gibco Invitrogen Co. (Scotland, UK). RPMI-1640 medium was from Cambrex (New Jersey, USA). Dimethyl sulfoxide (DMSO), doxorubicin, penicillin, streptomycin and sulforhodamine B (SRB) were from Sigma Chemical Co. (Saint Louis, USA).
(§2) Cell cultures: Three human tumor cell lines, HCT116 (colon cell line), HePG 2 (human hepatocellular carcinoma cell line), and MCF7 (human breast adenocarcinoma) were used. In vitro bioassay on human tumor cell lines were conducted and determined by the Bioassay-Cell Culture Laboratory, National Research Centre, El-Tahrir St., Dokki, Cairo 12622, Egypt. They grew as a monolayer and are routinely maintained in RPMI-1640 medium supplemented with 5% heat-inactivated FBS, 2 mM glutamine and antibiotics (penicillin 100 U/mL, streptomycin 100 μg/mL), at 37° C. in a humidified atmosphere containing 5% CO2. Exponentially growing cells were obtained by plating 1.5×10^5 cells/mL for MCF-7 and HCT116 and 0.75×10^4 cells/mL for HePG2, followed by 24 h of incubation. The effect of the vehicle solvent (DMSO) on the growth of these cell lines was evaluated in all experiments by exposing untreated control cells to the maximum concentration (0.5%) of DMSO used in each assay.
(§3) Tumor cell growth assay: The effect on the in vitro growth of human tumor cell lines was evaluated according to the procedure adopted by the National Cancer Institute (NCI, USA) in the ‘In vitro Anticancer Drug Discovery Screen’ that uses the protein-binding dye sulforhodamine B to assess cell growth. Briefly, cells growing in 96-well plates were then exposed for 48 h to five serial concentrations of each compound, starting from a maximum concentration of 78 μM (P. Skehan, R. Storeng, D. Scudiero, A. Monks, J. McMahon, D. Vistica, J. T. Warren, H. Bokesch, S. Kenney, M. R. Boyd, J. Natl. Cancer Inst., 82, 1107 (1990), incorporated herein by reference in its entirety). Following this exposure period adherent cells were fixed, washed, and stained. The bound stain was solubilized and the absorbance was measured at 492 nm in a plate reader (Bio-Tek Instruments Inc., Power wave XS, Wincoski, USA). For each test compound and cell line, a dose-response curve was obtained and the growth inhibition of 50% (GI50), corresponding to the concentration of the compounds that inhibited 50% of the net cell growth, was calculated as described elsewhere (A. Monks, D. Scudiero, P. Skehan, R. Shoemaker, K. Paull, D. Vistica, C. Hose, J. Langley, P. Cronise, A. Vaigro-Wolff, M. Gray-Goodrich, H. Campbell, J. Mayo, M. J. Boyd, Natl. Cancer Inst., 83, 757 (1991), incorporated herein by reference in its entirety). Doxorubicin was used as a positive control and tested in the same manner.

[2] = tested on: MCF7 (human breast cancer cell line); test: Tumor cell growth assay (sulforhodamine B), MCF7; conditions: for Remarks (% at 100 ppm): 48 h; for Inhibitory effect on in vitro growth (in words): 48 h exposure; for LC90: death of 90% of cells in 48 hrs
Excerpt: as §1, §2, §3

[3] = tested on: Aspergillus flavus ATCC 16883; test: MIC by agar well diffusion method; conditions: 25° C., 48 h, dilutions 50 to 500 μg/mL; for MIC: Aspergillus flavus, ATCC16883
Excerpt: (§4) The common pathogenic and food spoilage microorganisms were selected for their relevance in bakery products and other food: the gram-positive bacteria: Bacillus subtilits NRRL-B-4219, Staphylococcus aureus ATCC 6538, Enterococcus faecalis ATCC 19433; the gram negative bacteria: Escherichia coli ATCC 25922, Pseudomonas aeruginosa ATCC 9027, Proteus sp.; yeasts, such as Candida albicans ATCC 10231; and fungi: Aspergillus niger NRRL 2766 (equivalent to ATCC 16888), and Aspergillus flavus ATCC 16883. The bacteria were slanted on nutrient agar (Merck, Darmstadt, Germany), yeast was slanted and mentioned on Sabaroud's agar medium (Lab M., Bury, Lancashire, UK) and the fungi was slanted and mentioned on the potato Dextrose Agar medium (Lab M Limited, Bury, Lancashire, UK). Mueller-Hinton agar (Lab M., Bury, Lancashire, UK) following the manufacturer's instructions was used for the assay. The in vitro minimum inhibitory concentration (MIC) of the synthesized compounds was determined by the agar well diffusion method. DMSO was used to prepare different concentrations ranging from 50 to 500 μg/mL by serial dilutions. The media were inoculated with 100 μL of each of the 10^6 cfu/mL bacterial and fungal strains, and the assay was applied by an agar well diffusion method. Blank DMSO was used as negative control. The plates were incubated aerobically in an incubator at 37° C. for 24 h for bacterial strains and 25° C. for 48 h for fungal strains. The MIC was taken as the lowest concentration in the series dilution that prevented bacterial growth.

[4] = tested on: Aspergillus niger NRRL 2766; test: MIC by agar well diffusion method; conditions: 25° C., 48 h, dilutions 50 to 500 μg/mL; for MIC: Aspergillus niger, NRRL2766
Excerpt: as §4

[5] = tested on: Bacillus subtilits NRRL-B-4219; test: MIC by agar well diffusion method; conditions: 37° C., 24 h, dilutions 50 to 500 μg/mL; for MIC: Bacillus, NRRLB4219
Excerpt: as §4

[6] = tested on: Candida albicans ATCC 10231; test: MIC by agar well diffusion method; conditions: 25° C., 48 h, dilutions 50 to 500 μg/mL; for MIC: Candida albicans, ATCC10231
Excerpt: as §4

[7] = tested on: Enterococcus faecalis ATCC 19433; test: MIC by agar well diffusion method; conditions: 37° C., 24 h, dilutions 50 to 500 μg/mL; for MIC: Enterococcus faecalis, ATCC19433, read-out: MIC, Ent. faecalis
Excerpt: as §4

[8] = tested on: Escherichia coli ATCC 25922; test: MIC by agar well diffusion method; conditions: 37° C., 24 h, dilutions 50 to 500 μg/mL; for MIC: Escherichia coli, ATCC25922
Excerpt: as §4

[9] = tested on: Proteus sp.; test: MIC by agar well diffusion method; conditions: 37° C., 24 h; dilutions 50 to 500 μg/mL
Excerpt: as §4

[10] = tested on: Pseudomonas aeruginosa ATCC 9027; test: MIC by agar well diffusion method; conditions: 37° C., 24 h, dilutions 50 to 500 μg/mL; for MIC: Pseudomonas aeruginosa, ATCC9027, read-out: MIC, P. aeruginosa
Excerpt: as §4

[11] = tested on: Staphylococcus aureus ATCC 6538; test: MIC by agar well diffusion method; conditions: 37° C., 24 h, dilutions 50 to 500 μg/mL; for MIC: Staphylococcus aureus, ATCC6538, read-out: MIC, S. aureus
Excerpt: as §4

Compound | Remarks (% at 100 ppm) [1] [% at 100 ppm] | Remarks (% at 100 ppm) [2] [% at 100 ppm] | MIC [3] [µg/mL] | MIC [4] [µg/mL] | MIC [5] [µg/mL] | MIC [6] [µg/mL] | MIC [7] [µg/mL] | MIC [8] [µg/mL] | MIC [9] [µg/mL] | MIC [10] [µg/mL] | MIC [11] [µg/mL] | Inhibitory effect on in vitro growth (in words) [1] | LC90 [1] [µg/mL] | Inhibitory effect on in vitro growth (in words) [2] | LC90 [2] [µg/mL] | further results
CCOC1Oc2ccccc2C(=O)C1=NNc1ccccc1OC (centres unmarked) [Compound 6b, 2-ethoxy-3-(2-(2-methoxyphenyl)hydrazono)chroman-4-one] | 39.6 | 22.9 | 350 (≈ 1070 µM) | 300 (≈ 919 µM) | 200 (≈ 613 µM) | 400 (≈ 1230 µM) | 450 (≈ 1380 µM) | 250 (≈ 766 µM) | 350 (≈ 1070 µM) | 400 (≈ 1230 µM) | 300 (≈ 919 µM) |  |  |  |  | 
CCOC1Oc2ccccc2C(=O)C1=NNc1ccc(Cl)cc1 (centres unmarked) [Compound 6c, 3-[(4-Chlorophenyl)hydrazono]-2-ethoxychroman-4-one] | 100 | 100 | 200 (≈ 605 µM) | 100 (≈ 302 µM) | 75 (≈ 227 µM) | 50 (≈ 151 µM) | 200 (≈ 605 µM) | 50 (≈ 151 µM) | 150 (≈ 453 µM) | 150 (≈ 453 µM) | 150 (≈ 453 µM) | highest inhibitory effect | 23.1 (≈ 69.8 µM) | highest inhibitory effect | 27.0 (≈ 81.6 µM) | CC50 ([1]; Homo sapiens, HCT-116, death of 50% of cells in 48 hrs, read-out: LC50 (the source's name)): 13.2 µg/mL (≈ 39.9 µM); LC50 (concentration killing 50% of cells) ([2]; Homo sapiens, death of 50% of cells in 48 hrs): 15.8 µg/mL
Ethoxy-3-[(4-nitro-phenyl)-hydrazono]-chroman-one [Compound 6a] | 65.3 | 61.3 |  |  |  |  |  |  |  |  |  | highest inhibitory effect | 123.3 | highest inhibitory effect | 124.1 | LC50 ([2]; death of 50% of cells in 48 hrs): 76.3 µg/mL; MIC, A. flavus [3]: 250 µg/mL; MIC, A. niger [4]: 200 µg/mL; MIC, B. subtilits [5]: 150 µg/mL; MIC, C. albicans [6]: 250 µg/mL; MIC, Ent. faecalis [7]: 250 µg/mL; MIC, E. coli [8]: 100 µg/mL; MIC, Proteus sp. [9]: 250 µg/mL; MIC, P. aeruginosa [10]: 300 µg/mL; MIC, S. aureus [11]: 350 µg/mL
